Measurements from PMC11817140, “Characterization of Novel Plantaricin-Derived Antiviral Peptides Against Flaviviruses” (International Journal of Molecular Sciences, 2025).
Several values for one entry are separate records, joined by “and”; a condition that tells them apart may be missing. Equal values may be shown once.

Tested on: West Nile virus Kunjin strain (KUNV)
Test: Plaque reduction assay in Vero cells after pre-incubating virus with peptide
Format: cell-based
Details: 10 µM peptide, KUNV 1 × 10^5 PFU exposed in DMEM for 1 h at room temperature, then Vero cells 1 h, overlay, 3 days, mean with SD of three independent experiments
Method: The antiviral activity of the synthesized peptides was evaluated using plaque reduction assays in Vero cells against West Nile virus Kunjin strain (KUNV, accession number AY274504). Vero cells (Vero E6, ATCC, CRL-1586, Manassas, VA, USA) were maintained in Dulbecco’s Modified Eagle Medium (DMEM, Thermo Fisher Scientific, Gibco, Göteborg, Sweden), supplemented with 10% fetal bovine serum (FBS, Thermo Fisher Scientific, Gibco, Göteborg, Sweden) and antibiotics (PEST, Thermo Fisher Scientific, Gibco, Göteborg, Sweden). For the antiviral assays, Vero cells were seeded in 24-well plates and allowed to reach confluency. The virus suspension (1 × 10^5 PFU) was pre-incubated with the peptides at 10 µM concentration or lower (in the combination experiment) for 1 h at room temperature. The peptide–virus mixtures were then added to the Vero cell monolayers and incubated for 1 h at 37 °C. Following incubation, the inoculum was removed, and cells were overlaid with Avicel 2.4% overlay media (FMC, Philadelphia, PA, USA). Plates were incubated for 3 days at 37 °C in a CO2 incubator. Post-incubation, cells were fixed with 100% methanol and stained with 1% crystal violet to visualize and count viral plaques. The reduction in plaque numbers compared to control wells (virus without peptide) was used to quantify antiviral activity.

Point of comparison: “SVPTSVYTLGIKILWSAYKHRKTIEKSFNKGFYH [PLNC8 β, full-length β peptide (34 residues) of two-peptide bacteriocin plantaricin NC8 αβ, reference compound]”, “KUNV (% Reduction)” value 70 ± 12%. Against it:
- AYSLQMGATAIKQVKKLFKKWGW [PlnA, full-length plantaricin A, peptide pheromone of Lactobacillus plantarum C11, reference compound] — lower, 27 ± 9%
- FNRGGYNFGKSVRHVVDAIGSVAGIRGILKSIR [PlnE, full-length peptide E of two-peptide plantaricin EF, reference compound] — lower, 24 ± 6%
- GAWKNFWSSLRKGFYDGEAGRAIRR [PlnJ, full-length peptide J of two-peptide plantaricin JK, reference compound] — lower, 30 ± 8%
- RRSRKNGIGYAIGYAFGAVERAVLGGSRDYNK [PlnK, full-length peptide K of two-peptide plantaricin JK, reference compound] — lower, 18 ± 9%
- SVPTSVYLLGIKILWKARKFGKVIEKSFNKGFYH [β18, modified peptide derived from PLNC8 β] — lower, 12 ± 1%
- SVPTSVYLLGIKILWSARKFGKVIEKSFNKGFYH [β17, modified peptide derived from PLNC8 β] — lower, 14 ± 12%
- SVPTSVYTLGIKILRSARKFGKVIEKSFNKGFYH [β15, modified peptide derived from PLNC8 β] — lower, 9 ± 13%
- SVPTSVYTLGIKILWSARKFGKVIEKSFNKGFYH [β16, modified peptide derived from PLNC8 β] — within error, 84 ± 8%
- SVPTSVYTLGQKILRSARKFGKDIEKSFNKGFYH [β14, modified peptide derived from PLNC8 β] — lower, 6 ± 8%
- SVPTSVYTLGQKILRSARKFGKTIEKSFNKGFYH [β13, modified peptide derived from PLNC8 β] — lower, 8 ± 11%
- VFHAYSARGVRNNYKSAVGPADWVISAVRGFIHG [PlnF, full-length peptide F of two-peptide plantaricin EF, reference compound] — lower, 24 ± 6%
- α1-8: truncated peptide derived from PLNC8 α (DLTTKLWS) — lower, 20 ± 18%
- α1-15: truncated peptide derived from PLNC8 α (DLTTKLWSSWGYYLG) — higher, 91 ± 2%
- α1-22: truncated peptide derived from PLNC8 α (DLTTKLWSSWGYYLGKKARWNL) — lower, 28 ± 2%
- α9-15: truncated peptide derived from PLNC8 α (SWGYYLG) — lower, 16 ± 7%
- α9-22: truncated peptide derived from PLNC8 α (SWGYYLGKKARWNL) — lower, 7 ± 7%
- α9-29: truncated peptide derived from PLNC8 α (SWGYYLGKKARWNLKHPYVQF) — lower, 10 ± 6%
- α16-22: truncated peptide derived from PLNC8 α (KKARWNL) — lower, 3 ± 6%
- α16-29: truncated peptide derived from PLNC8 α (KKARWNLKHPYVQF) — lower, 2 ± 0%
- α23-29: truncated peptide derived from PLNC8 α (KHPYVQF) — lower, 10 ± 4%
- β1-6: truncated peptide derived from PLNC8 β (SVPTSV) — lower, 21 ± 22%
- β1-13: truncated peptide derived from PLNC8 β (SVPTSVYTLGIKI) — lower, 5 ± 7%
- β1-20: truncated peptide derived from PLNC8 β (SVPTSVYTLGIKILWSAYKH) — higher, 92 ± 4%
- β4-17: truncated peptide derived from PLNC8 β (TSVYTLGIKILWSA) — within error, 56 ± 32%
- β7-13: truncated peptide derived from PLNC8 β (YTLGIKI) — lower, 8 ± 4%
- β7-20: truncated peptide derived from PLNC8 β (YTLGIKILWSAYKH) — within error, 65 ± 20%
- β7-34: truncated peptide derived from PLNC8 β (YTLGIKILWSAYKHRKTIEKSFNKGFYH) — within error, 52 ± 27%
- β10-17: truncated peptide derived from PLNC8 β (GIKILWSA) — lower, 0 ± 0%
- β14-20: truncated peptide derived from PLNC8 β (LWSAYKH) — lower, 3 ± 4%
- β14-34: truncated peptide derived from PLNC8 β (LWSAYKHRKTIEKSFNKGFYH) — lower, 5 ± 0.2%
- β21-34: truncated peptide derived from PLNC8 β (RKTIEKSFNKGFYH) — lower, 0 ± 0%
- β28-34: truncated peptide derived from PLNC8 β (FNKGFYH) — lower, 11 ± 15%

“DLTTKLWSSWGYYLGKKARWNLKHPYVQF [PLNC8 α, full-length α peptide (29 amino acids) of two-peptide bacteriocin plantaricin NC8 αβ, reference compound]” was tested, and the “KUNV (% Reduction)” value was ~ 35% and 35 ± 2%.

Same assay, conditions: 10 µM peptide, KUNV 1 × 10^5 PFU exposed in DMEM for 1 h at room temperature, then Vero cells 1 h, overlay, 3 days, mean with SD of three independent experiments, listed as PLNC8 α1-15

For “α1-15: truncated peptide derived from PLNC8 α (DLTTKLWSSWGYYLG)”, the “KUNV (% Reduction)” value was “over 90%”.

Same assay, conditions: 10 µM peptide, KUNV 1 × 10^5 PFU exposed in DMEM for 1 h at room temperature, then Vero cells 1 h, overlay, 3 days, mean with SD of three independent experiments, listed as PLNC8 β1-20

With “β1-20: truncated peptide derived from PLNC8 β (SVPTSVYTLGIKILWSAYKH)” the “KUNV (% Reduction)” value was “over 90%”.
